The results in this text go back to patent US4593119A, “Method for treatment or prophylaxis of cardiac disorders” (American Hospital Supply Corporation, priority 1982, dated 1986).

In series [1] the test system is heart rate response to isoproterenol (dog). Briefly: beta-blockade in vivo in pentobarbital-anesthetized dogs, 3-hour infusion, inhibition of heart rate response to isoproterenol and recovery. The settings on record: 80% recovery after 3-hour infusion. As for the experimental part:
(§1) The duration of beta-blockage was determined in vivo using pentobarbital-anesthetized dogs instrumented for measurement of heart rate using a Beckman cardiotachometer triggered electronically by a phasic aortic blood pressure signal. Both vagus nerves were severed in the cervical region and the animals were mechanically ventilated. Two experimental designs were used. The first employed a 40-minute infusion of test compound and the second used a 3-hour infusion of test compound. In the 40-minute model, isoproterenol was infused into a foreleg vein at the rate of […] to induce a beta-receptor mediated tachcardia. Various doses of test compound were then infused into a femoral vein over a period of 40 minutes. This infusion was then terminated and recovery from blockade was quantitated. […] This cumulative dose is expressed as mg/kg and is an indication of potency. The time period required for 80% recovery of heart rate for each dose of test drug was also measured to quantitate duration of action. […] Test compound were dissolved in 0.9% NaCl and infused at a rate of 0.05 ml/Mg/min or less. In the 3-hour infusion model, bolus doses of isoproterenol ([…]) were used to assess the degree of beta-blockade and recovery from beta-blockage after termination of the infusion. The doses were spaced at 10-minute intervals and were given before, during and following the infusion of test compounds. The infusion rate was adjusted so that the end of the 3-hour infusion period the degree of isoproterenol inhibition averaged about 50% of control.

In series [2] the target is T1, β-adrenergic receptors, guinea pig tracheal strips (Cavia porcellus, UniProt Q8K4Z4).
T1 construct: Spiral strips of guinea pig trachea; from tissue; host or cells: guinea pig trachea, spiral strips
Briefly: β-blocking activity in vitro, guinea pig tracheal strips (tension response to isoproterenol). Format: cell-based. The settings on record: for Kb: read-out: pA2 Trachea (converted); for pA2 Trachea: pA2 = -log KB, vs isoproterenol, 60-minute incubation, tracheal tension. As for the experimental part: (§2) Each tissue was suspended between a fixed glass rod and a Statham Universal Transducer connected to a Beckman recorder. Atria were allowed to beat spontaneously under a loading tension of approximately 0.5 g. Changes in rate of response to isoproterenol, a standard β-receptor agonist, were measured in the absence and presence of test compounds. Spiral strips of guinea pig trachea were suspended under 5 g resting tension and incubated with phentolamine, tropolone, and cocaine. Active tension was generated by addition of carbachol (3.0×10^-7 M) and decreases in tension in response to isoproterenol were quantitated. Cumulative concentration response curves were produced with isoproterenol both before and after 60-minute incubation of test compounds with atria and trachea. Compounds with β-blocking activitiy shifted concentration response curves to the right. […] The degree of cardioselectivity was estimated from the ratio KB trachea/KB atria 10(pA2 Atria -pA^2 Trachea). A ratio greater than one indicates cardioselectivity. […]

The subject of series [3] is β-adrenergic receptors, guinea pig right atria. Briefly: β-blocking activity in vitro, guinea pig right atria (rate response to isoproterenol). In kind it is cell-based. As for the experimental part:
as §2

Series [4] is described as follows: disappearance in vitro in human whole blood. Format: in vitro ADME. The following applies: 37° C., 50 μg test compound, read-out: T1/2 Human Blood. On the procedure:
(§3) The rate of disappearance of a compound is expressed as the half-life (T1/2), which is the time period in which one-half of the initial amount of compound tested disappears. […] At the designated time periods, the test mixtures were removed from the incubator and transferred to a 0° C. ice bath. Acetonitrile (2 mL) was immediately added, and the mixtures were mixed to stop enzymatic hydrolysis. Zero time samples were prepared by adding 2 mL of acetonitrile to denature the proteins prior to addition of the test compounds. […] The half-life of each test compound was determined graphically by plotting the decrease in concentration as a function of time.

The nature of series [5]: disappearance in vitro in dog liver homogenate. Format: in vitro ADME. The settings on record: 33% (w/v) dog liver homogenate, 37° C., 50 μg test compound; read-out: T1/2 Dog Liver. On the procedure:
as §3

Series [6] concerns beta-receptor mediated tachycardia (dog heart rate). Nature of the series: beta-blockade in vivo in pentobarbital-anesthetized dogs, 40-minute infusion, inhibition of heart rate response to isoproterenol and recovery. On the procedure: as §1
Series [7] is described as follows: disappearance in vitro in dog whole blood. The following applies: 37° C., 50 μg test compound, read-out: T1/2 Dog Blood. Format: in vitro ADME. As for the experimental part: as §3
Series [8] deals with β-adrenergic receptors, guinea pig right atria (Cavia porcellus, UniProt H0W3H1). Briefly: β-blocking activity in vitro, guinea pig right atria (rate response to isoproterenol). Format: cell-based. The following applies: read-out: pA2 Atria (converted). On the procedure:
as §2

[9] abbreviates: ratio KB trachea/KB atria, greater than one indicates cardioselectivity.
Setting [10] is: Canis lupus familiaris, iv, 40 min; read-out: Potency mg/kg/40 min.
[11] abbreviates: time for 80% recovery of heart rate after 40-minute i.v. infusion, dogs; in min.

Counter-ions that a name gives are not always drawn. Like-named read-outs stand apart in the source and are kept apart here.

Sequence of β-adrenergic receptors, guinea pig right atria (Cavia porcellus, UniProt H0W3H1) (H0W3H1 1-470): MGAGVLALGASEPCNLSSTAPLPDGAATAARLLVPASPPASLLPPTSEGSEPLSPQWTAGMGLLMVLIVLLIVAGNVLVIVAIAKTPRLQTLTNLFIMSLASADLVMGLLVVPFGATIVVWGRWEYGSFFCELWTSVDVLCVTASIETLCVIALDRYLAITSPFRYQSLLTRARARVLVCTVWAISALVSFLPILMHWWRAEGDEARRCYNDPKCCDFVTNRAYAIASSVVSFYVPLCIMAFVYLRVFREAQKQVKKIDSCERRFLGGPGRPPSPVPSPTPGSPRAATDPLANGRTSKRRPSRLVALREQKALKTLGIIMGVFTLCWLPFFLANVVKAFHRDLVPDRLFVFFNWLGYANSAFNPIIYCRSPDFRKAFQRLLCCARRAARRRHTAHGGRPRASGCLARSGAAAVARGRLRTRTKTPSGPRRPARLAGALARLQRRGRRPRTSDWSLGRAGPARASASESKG
T1 sequence (Q8K4Z4 whole entry): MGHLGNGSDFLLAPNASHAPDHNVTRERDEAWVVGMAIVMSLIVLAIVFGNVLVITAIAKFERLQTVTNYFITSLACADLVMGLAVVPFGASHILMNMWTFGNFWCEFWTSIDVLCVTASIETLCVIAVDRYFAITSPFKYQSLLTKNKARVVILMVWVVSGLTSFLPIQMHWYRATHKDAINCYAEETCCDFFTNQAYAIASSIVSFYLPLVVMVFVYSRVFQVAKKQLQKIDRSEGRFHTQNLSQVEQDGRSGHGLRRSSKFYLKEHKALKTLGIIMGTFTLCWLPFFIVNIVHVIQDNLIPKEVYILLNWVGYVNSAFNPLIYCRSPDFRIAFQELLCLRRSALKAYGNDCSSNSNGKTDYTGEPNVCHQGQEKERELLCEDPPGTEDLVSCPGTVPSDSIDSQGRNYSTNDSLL

For `COC(=O)CCc1ccc(OCC(O)CNC(C)C)cc1.Cl` (stereo not shown) [Example IV, Methyl 3-[4-[2-Hydroxy-3-(isopropylamino)propoxy]-phenyl]propionate Hydrochloride], the “80% Recovery Time” value in series [1] (in min) stood at 12 ± 3; in series [6] (setting [11]), 12 ± 2. Further, the Kb in series [2] was 2510 nM. For the same compound, the Cardioselectivity in series [3] (setting [9]) came to 30. Also, the values for the half-life in series [4], in series [5] and in series [7] were 44 min, below 5 min and 41 min, respectively. Also, the ED50 in series [6] (setting [10]) was found to be 1.35 ± 0.52 mg/kg.

Turning to `COC(=O)c1ccc(OCC(O)CNC(C)C)cc1.Cl` (stereo not shown) [Example I, Methyl 4-[2-Hydroxy 3-(isopropylamino)propoxy]benzoate Hydrochloride], the “pA2 Trachea” value in series [2] is reported as 5.5. For the same compound, the Cardioselectivity in series [3] (setting [9]) was determined as 19. Moreover, the half-life is above 60 min in series [4], above 180 min in series [5] and 60 min in series [7]. Also, the ED50 in series [6] (setting [10]) turned out to be 3.7 ± 1.3 mg/kg. Further, the “80% Recovery Time” value in series [6] (setting [11]) was found to be 34 ± 11.

`COC(=O)CCc1ccc(OCC(O)CNC(C)(C)C)cc1` (stereo not shown) [V]: the “80% Recovery Time” value in series [1] (in min) is 15 ± 3; in series [6] (setting [11]) it was 7 ± 2. The “pA2 Trachea” value in series [2] is 5.9. In addition, the Cardioselectivity in series [3] (setting [9]) is 4. Also, the ED50 in series [6] (setting [10]) worked out at 4.5 ± 1.5 mg/kg.

On to `COC(=O)CCc1ccccc1OCC(O)CNC(C)C` (stereo not shown) [XIII], for which the “80% Recovery Time” value in series [1] (in min) is 29 ± 6. Also, the half-life in series [4] was 11 min; in series [5] it was below 2.5 min; in series [7] it was 120 min.

`COC(=O)c1ccccc1OCC(O)CNCCc1ccc(OC)c(OC)c1.O=C(O)C(=O)O` (stereo not shown) [Example XI, Methyl 2-[2-Hydroxy-3-(3,4-dimethoxyphenethylamino)propoxy]benzoate Oxalate]: the “80% Recovery Time” value in series [1] (in min) was 30 ± 4. For the same compound, the “pA2 Trachea” value in series [2] stood at 7.1. Further, the Cardioselectivity in series [3] (setting [9]) is 16. The half-life was determined as 8 min in series [4], 3 min in series [5] and 120 min in series [7].

With `COC(=O)Cc1ccc(OCC(O)CNC(C)C)cc1.Cl` (stereo not shown) [III, Methyl 4-[2-Hydroxy-3-(isopropylamino)propoxy]phenylacetate hydrochloride], the “pA2 Trachea” value in series [2] was determined as 5.4. The half-life in series [4] amounted to 2 min; in series [5], 5 min; in series [7], 60 min. In addition, the ED50 in series [6] (setting [10]) came to 2.3 ± 0.6 mg/kg. In addition, the “80% Recovery Time” value in series [6] (setting [11]) came to 20 ± 5.

As for `COC(=O)CCc1ccc(OCC(O)CNCCc2ccc(OC)c(OC)c2)cc1` (stereo not shown) [VI], the “80% Recovery Time” value in series [1] (in min) was determined as 14 ± 3. Besides, the “pA2 Trachea” value in series [2] is on record as 5.2. The Cardioselectivity in series [3] is listed as 20. Also, the half-life in series [4] worked out at 44 min; in series [5], 2 min; in series [7], 13 min.

In the case of `COC(=O)c1ccccc1OCC(O)CNC(C)C` (stereo not shown) [Example IX, Methyl 2-[2-Hydroxy-3-(isopropylamino)propoxy]benzoate], the “80% Recovery Time” value in series [1] (in min) and in series [6] (setting [11]) was 15 ± 2 each time. The “pA2 Trachea” value in series [2] was 7.9. Further, the Cardioselectivity in series [3] (setting [9]) worked out at 2. Also, in series [8], the Kb is 6.31 nM. For the same compound, the half-life in series [4] was found to be 7 min; in series [5] it was 19 min; in series [7] it was 38 min. The ED50 in series [6] (setting [10]) is 0.176 ± 0.02 mg/kg.

`COC(=O)c1ccc(OCC(O)CNC(C)(C)C)cc1` (stereo not shown) [VIII, Methyl 4-[2-Hydroxy-3-(t-butylamino)propoxy]benzoate]: the “pA2 Trachea” value in series [2] is recorded as 5.4. The same compound registered a Cardioselectivity in series [3] of 32.

`C=CCOC(=O)c1cccc(OCC(O)CNC(C)C)c1` (stereo not shown) [Example XV]: in series [1], the 80% Recovery Time was above 60 min. Also, the Kb is 63.1 nM in series [2] and 126 nM in series [8]. Further, the Cardioselectivity in series [3] worked out at 2.

Take `CCCOC(=O)CCc1ccc(OCC(O)CNC(C)C)cc1.Cl` (stereo not shown) [XII, n-Propyl 3-[4-[2-Hydroxy-3-(isopropylamino)propoxy]phenyl]propionate Hydrochloride]: the “pA2 Trachea” value in series [2] was found to be 5.2. For the same compound, the Cardioselectivity in series [3] (setting [9]) stood at 1.6.

Regarding `CC(C)NCC(O)COc1cccc2ccccc12` (stereo not shown) [Propranolol, reference compound], the ED50 in series [6] (Canis lupus familiaris, iv, 40 min, read-out: Potency mg/kg/40 min) turned out to be 0.06 ± 0.01 mg/kg. Besides, the “80% Recovery Time” value in series [6] (iv, 40 min) is 42 ± 9.

Consider `COC(=O)c1ccccc1OCC(O)CNC(C)(C)C` (stereo not shown) [Example X, Methyl 2-[2-Hydroxy-3-(t-butylamino)propoxy]benzoate Hydrochloride Hemihydrate], for which the “80% Recovery Time” value was 22 ± 5 in series [1] (in min) and 12 ± 1 in series [6] (setting [11]). Also, the half-life in series [4] was determined as 7 min; in series [5], 5 min; in series [7], 17 min. Moreover, the ED50 in series [6] (setting [10]) is 0.14 ± 0.04 mg/kg.

On to `C=CCOC(=O)c1ccc(OCC(O)CNC(C)C)cc1` (stereo not shown) [Example XIV, 3-Propenyl 4-[2-Hydroxy-3-(isopropylamino)propoxy]benzoate], for which the Kb is 2000 nM in series [2] and 501 nM in series [8]. In addition, the Cardioselectivity in series [3] (setting [9]) is reported as 4.

For `CCOC(=O)c1ccc(OCC(O)CNC(C)C)cc1.Cl` (stereo not shown) [II, Ethyl 4-[2-Hydroxy-3-(isopropylamino)propoxy]benzoate Hydrochloride], the “pA2 Trachea” value in series [2] came to 6.1. For the same compound, in series [3] (setting [9]), the Cardioselectivity was 2.5. Also, the values for the half-life in series [4] and in series [7] were above 60 min and 60 min, respectively. The ED50 in series [6] (setting [10]) is 5.7 ± 1.6 mg/kg. Moreover, in series [6] (setting [11]), the “80% Recovery Time” value came to 56 ± 6.

Turning to `C=CCOC(=O)c1ccccc1OCC(O)CNC(C)C` (stereo not shown) [Example XVI], the “80% Recovery Time” value in series [1] (in min) stood at 36 ± 5. Besides, the Kb in series [2] and in series [8] was 12.6 nM each time. Also, the Cardioselectivity in series [3] (setting [9]) is on record as 1.

For the compound `CC(=O)Nc1ccc(OCC(O)CNC(C)C)cc1` (stereo not shown) [Practolol, reference compound], the 80% Recovery Time in series [1] was above 60 min; in series [6] (time for 80% recovery of heart rate after 40-minute i.v. infusion, dogs) it was 61 min.
